What was measured:
Hep 3B2 = assay: Antiproliferative activity against human Hep3B cells assessed as reduction in cell viability measured after 5 days in presence of sorafenib by Celltiter-glo assay; format: functional, cell-based; conditions: for EC50: 120 h
[1] = test system: Hepatocellular carcinoma organoid; assay: Antiproliferative activity against C57BL/6 mouse Hepatocellular carcinoma organoids harboring myristoylated Akt1 and overexpressing Myc assessed as reduction in cell viability measured after 5 days in presence of sorafenib by Celltiter-glo assay; format: functional, tissue-based; conditions: Neoplasm, dose 1-5 µM, time 5.0 day
[2] = target: T1, Oxysterols receptor LXR-alpha (Homo sapiens, UniProt Q13133); assay: Agonist activity at GST-tagged LXRalpha LBD (unknown origin) measured after 6 hrs in presence of fluorescein-TRAP220/DRIP-2 by TR-FRET assay
T1 sequence (Q13133 whole entry): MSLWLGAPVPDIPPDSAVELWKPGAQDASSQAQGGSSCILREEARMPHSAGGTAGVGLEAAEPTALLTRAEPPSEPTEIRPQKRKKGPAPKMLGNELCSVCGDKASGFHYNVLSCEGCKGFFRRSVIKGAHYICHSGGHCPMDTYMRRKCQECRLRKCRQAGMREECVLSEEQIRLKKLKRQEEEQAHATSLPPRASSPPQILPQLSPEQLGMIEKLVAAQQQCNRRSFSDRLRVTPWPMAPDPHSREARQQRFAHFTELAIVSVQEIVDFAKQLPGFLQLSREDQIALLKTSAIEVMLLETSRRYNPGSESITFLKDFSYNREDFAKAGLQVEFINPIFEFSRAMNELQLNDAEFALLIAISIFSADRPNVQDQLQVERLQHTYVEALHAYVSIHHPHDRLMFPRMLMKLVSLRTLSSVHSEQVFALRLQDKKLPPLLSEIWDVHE

[3] = target: T2, Oxysterols receptor LXR-beta (Homo sapiens, UniProt P55055); assay: Agonist activity at GST-tagged LXRbeta LBD (unknown origin) measured after 6 hrs in presence of fluorescein-TRAP220/DRIP-2 by TR-FRET assay
T2 sequence (P55055 whole entry): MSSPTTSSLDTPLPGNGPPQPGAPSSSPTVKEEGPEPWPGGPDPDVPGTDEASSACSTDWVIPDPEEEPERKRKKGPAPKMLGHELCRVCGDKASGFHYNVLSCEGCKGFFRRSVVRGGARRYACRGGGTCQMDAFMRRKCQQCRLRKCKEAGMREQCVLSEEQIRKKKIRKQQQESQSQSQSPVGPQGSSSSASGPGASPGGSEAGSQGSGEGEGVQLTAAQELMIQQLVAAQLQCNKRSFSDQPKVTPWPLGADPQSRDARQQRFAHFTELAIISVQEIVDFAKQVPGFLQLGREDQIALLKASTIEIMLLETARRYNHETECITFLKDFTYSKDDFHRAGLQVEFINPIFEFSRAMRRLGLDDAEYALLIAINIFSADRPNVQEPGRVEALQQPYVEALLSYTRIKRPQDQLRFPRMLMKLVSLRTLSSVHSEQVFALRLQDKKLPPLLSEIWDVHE

| SMILES | EC50 (Hep 3B2) [µM] | Activity (Hep 3B2; time 5.0 day) | Activity [1] | EC50 [2] | EC50 [3] |
| --- | --- | --- | --- | --- | --- |
| O=C(O)Cc1cccc(OCCCN(Cc2cccc(C(F)(F)F)c2Cl)CC(c2ccccc2)c2ccccc2)c1 | 1.9 | Dose-dependent-effect | Dose-dependent-effect |  |  |
| CC(C)(C)OC(=O)NC1CCN(c2ccc(NC3=C(c4ccccc4)C(=O)N(Cc4ccccc4)C3=O)cc2)CC1 |  |  |  | Not_active | Not_active |
| COc1ccc(NC2=C(c3ccccc3)C(=O)N(Cc3ccccc3)C2=O)cc1 | 3.8 |  |  |  |  |
| CN1CCN(c2ccc(NC3=C(c4ccccc4)C(=O)N(Cc4ccccc4)C3=O)cc2)CC1 |  |  |  | Not_active | Not_active |
| O=S(=O)(c1ccccc1)N(CC(F)(F)F)c1ccc(C(O)(C(F)(F)F)C(F)(F)F)cc1 |  |  | Dose-dependent-effect |  |  |

Source: ChEMBL document CHEMBL6115048, “Uncovering α-Selectivity for Liver X Receptor Agonists for Lipotoxic Cancer Therapies” (J Med Chem, 2025)
